These results are taken from patent US6716851B2, “Substituted 2-aryl-4-arylaminopyrimidines and analogs as activators or caspases and inducers of apoptosis and the use thereof” (Cytovia, Inc., priority 2000, dated 2004).

Structures are written as SMILES.

In one experiment the test system is T-47D cells. Briefly: Caspase cascade activation (N-(Ac-DEVD)-N'-ethoxycarbonyl-R110 fluorogenic substrate) in T-47D cells. Particulars: 48 h incubation; for EC50: Homo sapiens, T47D, caspase activation potency, read-out: T47 EC50; for T47 Ratio 48 hr: caspase activity: ratio of net RFU of test compound to control. It is filed as cell-based, Human. As for the experimental part:
(§1) Human breast cancer cell lines T-47D and ZR-75-1 were grown according to media component mixtures designated by American Type Culture Collection +10% FCS (Invitrogen Corporation, Life Technologies division), in a 5% CO2-95% humidity incubator at 37° C. T-47D and ZR-75-1 cells were maintained at a cell density between 50 and 80% confluency at a cell density of 0.1 to 0.6×10^6 cells/ml. Cells were harvested at 600× g and resuspended at 0.65×10^6 cells/ml into appropriate media +10% FCS. An aliquot of […] of cells was added to a well of a […] microtiter plate containing 2.5 μl of a 10% DMSO in RPMI-1640 media solution containing 0.16 to 100 μM of 4-(3-methoxyanilino)-2-(2-pyridinyl)-6-(trifluoromethyl)pyrimidine or other test compound (0.016 to 10 μM final). An aliquot of 22.5 μl of cells was added to a well of a 384-well microtiter plate containing 2.5 μl of a 10% DMSO in RPMI-1640 media solution without test compound as the control sample. The samples were mixed by agitation and then incubated at 37° C. for 48 h in a 5% CO2-95% humidity incubator. After incubation, the samples were removed from the incubator and 25 μl of a solution containing 14 μM of N-(Ac-DEVD)-N′-ethoxycarbonyl-R110 fluorogenic substrate (Cytovia, Inc.; WO99/18856), 20% sucrose (Sigma), 20 mM DTT (Sigma), 200 mM NaCl (Sigma), 40 mM Na PIPES buffer pH 7.2 (Sigma), and 500 μg/ml lysolecithin (Calbiochem) was added. The samples were mixed by agitation and incubated at room temperature. Using a fluorescent plate reader (Model SpectraMax Gemini, Molecular Devices), an initial reading (T=0) was made approximately 1-2 min after addition of the substrate solution, employing excitation at 485 nm and emission at 530 nm, to determine the background fluorescence of the control sample. After the 3 h incubation, the samples were read for fluorescence as above (T=3 h).
(§2) The Relative Fluorescence Unit values (RFU) were used to calculate the sample readings as follows:
(§3) RFU(T=3h)−Control RFU(T=0)=Net RFU(T=3h)
(§4) The activity of caspase cascade activation was determined by the ratio of the net RFU value for 4-(3-methoxyanilino)-2-(2-pyridinyl)-6-(trifluoromethyl)pyrimidine or other test compound to that of control samples. The EC50 (nM) was determined by a sigmoidal dose-response calculation (Prism 2.0, GraphPad Software Inc.).

A further experiment relates to ZR-75-1 cells. Briefly: Caspase cascade activation (N-(Ac-DEVD)-N'-ethoxycarbonyl-R110 fluorogenic substrate) in ZR-75-1 cells. The experiment is classed as cell-based, Human. Particulars: ZR-75-1, 48 h incubation; for EC50: Homo sapiens, caspase activation potency; for ZR Ratio 48 hr: caspase activity: ratio of net RFU of test compound to control. On the procedure: as §1, §2, §3, §4

Broadly, the EC50 is the midpoint of the concentration-response curve. As to `FC(F)(F)c1cc(Nc2cccc(Oc3ccccc3)c2)nc(-c2cccnc2)n1` [Example 67, 4-(3-Phenoxyanilino)-2-(3-pyridinyl)-6-(trifluoromethyl)pyrimidine], in the experiment with T-47D cells, the EC50 was above 5000 nM and the “T47 Ratio 48 hr” value is 1.5. Besides, in the experiment with ZR-75-1 cells, the EC50 was above 5000 nM and the “ZR Ratio 48 hr” value is listed as 1.2.

`Cc1ccc(C)c(Nc2cc(C(F)(F)F)nc(-c3cccnc3)n2)c1` [Example 68, 4-(2,5-Dimethylanilino)-2-(3-pyridinyl)-6-(trifluoromethyl)pyrimidine]: in the experiment with T-47D cells, the EC50 worked out at 247 nM and the “T47 Ratio 48 hr” value was determined as 20.9. For the same compound, in the experiment with ZR-75-1 cells, the EC50 turned out to be 130 nM and the “ZR Ratio 48 hr” value amounted to 17.9.

Turning to `Cl.Oc1cccc(Nc2cc(C(F)(F)F)nc(-c3ccccn3)n2)c1` [Example 69, 4-(3-Hydroxyanilino)-2-(2-pyridinyl)-6-(trifluoromethyl)pyrimidine hydrochloride], in the experiment with T-47D cells, the EC50 turned out to be 382 nM and the “T47 Ratio 48 hr” value turned out to be 14.2. Besides, in the experiment with ZR-75-1 cells, the EC50 is 127 nM and the “ZR Ratio 48 hr” value came out at 10.9.

Take `COc1cccc(Nc2cc(C(F)(F)F)nc(-c3ccccc3)n2)c1` [Example 73, 4-(3-Methoxyanilino)-2-phenyl-6-(trifluoromethyl)pyrimidine]: in the experiment on T-47D cells, the EC50 was above 5000 nM and the “T47 Ratio 48 hr” value was 1.6. Further, in the experiment on ZR-75-1 cells, the EC50 was found to be 10000 nM and the “ZR Ratio 48 hr” value was 2.6.

Turning to `COc1cccc(Nc2cc(C(F)(F)F)nc(-c3cnccn3)n2)c1` [Example 74, 4-(3-Methoxyanilino)-2-(2-pyrazinyl)-6-(trifluoromethyl)pyrimidine], in the experiment on T-47D cells, the EC50 came to 364 nM and the “T47 Ratio 48 hr” value is reported as 16.4. For the same compound, in the experiment on ZR-75-1 cells, the EC50 amounted to 326 nM and the “ZR Ratio 48 hr” value came to 13.1.

Take `COc1ccc(OC)c(Nc2cc(C(F)(F)F)nc(-c3ccccc3)n2)c1` [Example 75, 4-(2,5-Dimethoxyanilino)-2-phenyl-6-(trifluoromethyl)pyrimidine]: in the experiment with T-47D cells, the concentration for a half-maximal effect (EC50) came to 2290 nM and the “T47 Ratio 48 hr” value stood at 16.3. For the same compound, in the experiment with ZR-75-1 cells, the EC50 amounted to 3280 nM and the “ZR Ratio 48 hr” value turned out to be 7.8.

As to `COc1ccc(C)c(Nc2cc(C(F)(F)F)nc(-c3cnccn3)n2)c1` [Example 80, 4-(5-Methoxy-2-methylanilino)-2-(2-pyrazinyl)-6-(trifluoromethyl)pyrimidine], in the experiment on T-47D cells, the EC50 worked out at 64 nM and the “T47 Ratio 48 hr” value was determined as 8.5. Further, in the experiment with ZR-75-1 cells, the EC50 turned out to be 243 nM and the “ZR Ratio 48 hr” value turned out to be 5.9.

For `COc1ccc(Cl)c(Nc2cc(C(F)(F)F)nc(-c3ccccc3)n2)c1` [Example 81, 4-(2-Chloro-5-methoxyanilino)-2-phenyl-6-(trifluoromethyl)pyrimidine], in the experiment with T-47D cells, the EC50 turned out to be 5050 nM and the “T47 Ratio 48 hr” value came to 12.7. In addition, in the experiment on ZR-75-1 cells, the EC50 turned out to be 5500 nM and the “ZR Ratio 48 hr” value is recorded as 5.0.

Regarding `COc1ccc(Oc2ccccc2)cc1Nc1cc(C(F)(F)F)nc(-c2cccnc2)n1` [Example 85, 4-(2-Methoxy-5-phenoxyanilino)-2-(3-pyridinyl)-6-(trifluoromethyl)pyrimidine], in the experiment on T-47D cells, the EC50 is above 5000 nM and the “T47 Ratio 48 hr” value was 1.7. Moreover, in the experiment on ZR-75-1 cells, the EC50 stood at 2830 nM and the “ZR Ratio 48 hr” value amounted to 6.7.

`COc1ccc(C)cc1Nc1cc(C(F)(F)F)nc(-c2cccnc2)n1` [Example 87, 4-(2-Methoxy-5-methylanilino)-2-(3-pyridinyl)-6-(trifluoromethyl)pyrimidine]: in the experiment on T-47D cells, the EC50 is below 75 nM and the “T47 Ratio 48 hr” value is given as 19.2. In addition, in the experiment on ZR-75-1 cells, the EC50 is below 75 nM and the “ZR Ratio 48 hr” value was found to be 16.9.

With `Cc1ccc(F)cc1Nc1cc(C(F)(F)F)nc(-c2cccnc2)n1` [Example 88, 4-(5-Fluoro-2-methylanilino)-2-(3-pyridinyl)-6-(trifluoromethyl)pyrimidine], in the experiment with T-47D cells, the EC50 is 2320 nM and the “T47 Ratio 48 hr” value is given as 9.8. Also, in the experiment with ZR-75-1 cells, the midpoint of the response, the EC50, lay at 1220 nM and the “ZR Ratio 48 hr” value is 8.0.
